Assay results reported in PubChem BioAssay AID256 (DTP/NCI, 2004).
Where “and” joins values, the source holds several entries; their conditions need not be identical. Identical values can stand only once. Toxic doses and inconclusive results are not listed. How the source made its calls: active means survival T/C of 150% or more; inactive means T/C below 125% in these data. Non-standard residues stand in square brackets, D forms with d. Residues, ends and D or L forms follow the SMILES beside them. ξ: configuration not given here. *: point of attachment. ξF = NC(Cc1ccccc1)C(=O)O; ClAc = O=C(CCl)*

Tested on: CD2F1 mice, L1210 leukemia ip, survival T/C
Experiment: NCI In Vivo Anticancer Drug Screen. Data for tumor model L1210 Leukemia (intraperitoneal) in CD2F1 (CDF1) mice
Settings: higher = longer survival
In short: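 Ratio T/C, where T is the treated-group value and C the vehicle-dosed control value, from mice implanted with a transplantable tumor.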

[1] = endpoint: mean survival time, dose: 100.0 mg/kg/injection, schedule: Q01DX009 (ip), vehicle: saline with Tween-80
[2] = endpoint: mean survival time, dose: 100.0 mg/kg/injection, schedule: Q04DX003 (ip), vehicle: saline with Tween-80
[3] = endpoint: mean survival time, dose: 200.0 mg/kg/injection, schedule: Q01DX009 (ip), vehicle: saline with Tween-80
[4] = endpoint: mean survival time, dose: 200.0 mg/kg/injection, schedule: Q04DX003 (ip), vehicle: saline with Tween-80
[5] = endpoint: mean survival time, dose: 400.0 mg/kg/injection, schedule: Q01DX009 (ip), vehicle: saline with Tween-80
[6] = endpoint: mean survival time, dose: 400.0 mg/kg/injection, schedule: Q04DX003 (ip), vehicle: saline with Tween-80
[7] = endpoint: mean survival time, dose: 400.0 mg/kg/injection, schedule: Q01DX001 (ip), vehicle: saline with Tween-80
[8] = endpoint: mean survival time, dose: 200.0 mg/kg/injection, schedule: Q01DX001 (ip), vehicle: saline
[9] = endpoint: mean survival time, dose: 400.0 mg/kg/injection, schedule: Q01DX001 (ip), vehicle: saline
[10] = endpoint: mean survival time, dose: 50.0 mg/kg/injection, schedule: Q01DX009 (ip), vehicle: saline
[11] = endpoint: mean survival time, dose: 100.0 mg/kg/injection, schedule: Q01DX009 (ip), vehicle: saline
[12] = endpoint: mean survival time, dose: 200.0 mg/kg/injection, schedule: Q01DX009 (ip), vehicle: saline
[13] = endpoint: mean survival time, dose: 400.0 mg/kg/injection, schedule: Q01DX009 (ip), vehicle: saline
[14] = endpoint: mean survival time, dose: 50.0 mg/kg/injection, schedule: Q01DX009 (ip), vehicle: saline with Tween-80

Measured: T/C

O=C(Oc1ccc(O)cc1)N(c1cccc2ccccc12)c1cccc2ccccc12
inactive: endpoint: mean survival time, dose: 25.0 mg/kg/injection, schedule: Q04DX002 (ip), vehicle: saline with Tween-80 100 % of control | endpoint: mean survival time, dose: 50.0 mg/kg/injection, schedule: Q04DX002 (ip), vehicle: saline with Tween-80 95 % of control | endpoint: mean survival time, dose: 100.0 mg/kg/injection, schedule: Q04DX002 (ip), vehicle: saline with Tween-80 91 % of control and 98 % of control | endpoint: mean survival time, dose: 400.0 mg/kg/injection, schedule: Q04DX002 (ip), vehicle: saline with Tween-80 95 % of control

c1ccc2c(c1)Nc1ccccc1S2
inactive: [1] 92 % of control | [2] 98 % of control | [3] 92 % of control | [4] 108 % of control | [5] 89 % of control | [6] 101 % of control

CC[N+]1(C)CCC(CN2c3ccccc3Sc3ccccc32)C1 (stereo unspecified)
inactive: [1] 93 % of control | [3] 98 % of control | [5] 110 % of control

Nc1ccc(Nc2c3ccccc3nc3ccccc23)cc1
inactive: endpoint: mean survival time, dose: 6.25 mg/kg/injection, schedule: Q04DX003 (ip), vehicle: saline 101 % of control | endpoint: mean survival time, dose: 12.5 mg/kg/injection, schedule: Q04DX003 (ip), vehicle: saline 111 % of control | endpoint: mean survival time, dose: 25.0 mg/kg/injection, schedule: Q04DX003 (ip), vehicle: saline 114 % of control

CCCCCCCCCCCCCCCCOc1ccc(OCCCCCCCCC)cc1
inactive: [7] 86 % of control

O=C(O)C(=O)O.O=C(O)C(=O)O.[Th]
inactive: [8] 95 % of control | [9] 97 % of control

Cc1nc(N)[nH]c(=O)c1-n1nnc2ccccc2c1=O
inactive: endpoint: mean survival time, dose: 100.0 mg/kg/injection, schedule: Q01DX001 (ip), vehicle: saline with Tween-80 92 % of control | endpoint: mean survival time, dose: 200.0 mg/kg/injection, schedule: Q01DX001 (ip), vehicle: saline with Tween-80 87 % of control | [7] 89 % of control

O=S(=O)(N/N=C/c1ccncc1)c1ccccc1
inactive: endpoint: mean survival time, dose: 12.5 mg/kg/injection, schedule: Q04DX003 (ip), vehicle: water 98 % of control | endpoint: mean survival time, dose: 25.0 mg/kg/injection, schedule: Q04DX003 (ip), vehicle: water 98 % of control | endpoint: mean survival time, dose: 50.0 mg/kg/injection, schedule: Q04DX003 (ip), vehicle: water 104 % of control | endpoint: mean survival time, dose: 100.0 mg/kg/injection, schedule: Q04DX003 (ip), vehicle: water 106 % of control | endpoint: mean survival time, dose: 200.0 mg/kg/injection, schedule: Q04DX003 (ip), vehicle: water 112 % of control | endpoint: mean survival time, dose: 400.0 mg/kg/injection, schedule: Q04DX003 (ip), vehicle: water 108 % of control

OCC1(CO)COC2(CCCCC2)N1
inactive: endpoint: mean survival time, dose: 12.5 mg/kg/injection, schedule: Q01DX009 (ip), vehicle: saline 101 % of control and 103 % of control | endpoint: mean survival time, dose: 25.0 mg/kg/injection, schedule: Q01DX009 (ip), vehicle: saline 103 % of control and 104 % of control | [10] 98 % of control | [11] 95 % of control and 103 % of control | [12] 97 % of control | [13] 95 % of control and 104 % of control

CCCCCC(C=O)C(O)(C(F)(F)F)C(F)(F)Cl (stereo unspecified)
inactive: endpoint: mean survival time, dose: 100.0 mg/kg/injection, schedule: Q04DX003 (ip), vehicle: Klucel (hydroxypropylcellulose) (HPC) 96 % of control | endpoint: mean survival time, dose: 200.0 mg/kg/injection, schedule: Q04DX003 (ip), vehicle: Klucel (hydroxypropylcellulose) (HPC) 91 % of control | endpoint: mean survival time, dose: 400.0 mg/kg/injection, schedule: Q04DX003 (ip), vehicle: Klucel (hydroxypropylcellulose) (HPC) 96 % of control

O=C(O)c1ccccc1/C=C/c1ccc([N+](=O)[O-])cc1
inactive: endpoint: mean survival time, dose: 25.0 mg/kg/injection, schedule: Q01DX009 (ip), vehicle: saline with Tween-80 98 % of control | [14] 95 % of control | [1] 104 % of control

CCOC(=O)CC(O)c1ccccc1 (stereo unspecified)
inactive: [14] 102 % of control | [1] 102 % of control | [3] 98 % of control

COC(=O)NC1C(C)OC(OC2C/C=C(/C)C3C=CC4C(OC5CC(OC6CC(OC7CC(O)C(O)C(C)O7)C(OC7CC(O)C(OC)C(C)O7)C(C)O6)C(O)C(C)O5)C(C)CC(C)C4C3(C)/C(O)=C3\C(=O)OC4(CC(C)C(CO)=CC4/C=C\2C)C3=O)CC1(C)[N+](=O)[O-] (stereo unspecified)
inactive: endpoint: median survival time, dose: 12.5 mg/kg/injection, schedule: Q01DX009 (ip), vehicle: water 109 % of control | endpoint: median survival time, dose: 25.0 mg/kg/injection, schedule: Q01DX009 (ip), vehicle: water 118 % of control | endpoint: median survival time, dose: 50.0 mg/kg/injection, schedule: Q01DX009 (ip), vehicle: water 110 % of control

O=C(O)CCC1NCCCO1 (stereo unspecified)
inactive: [11] 101 % of control | endpoint: mean survival time, dose: 100.0 mg/kg/injection, schedule: Q04DX003 (ip), vehicle: saline 88 % of control | [12] 95 % of control | [13] 95 % of control | endpoint: mean survival time, dose: 400.0 mg/kg/injection, schedule: Q04DX003 (ip), vehicle: saline 95 % of control

CN(C)[C@@H]1C(=O)C(C(=O)NCN2CCN(C(=N)N=C(N)N)CC2)=C(O)[C@@]2(O)C(=O)C3=C(O)c4c(O)cccc4[C@@](C)(O)[C@H]3C[C@@H]12
inactive: endpoint: mean survival time, dose: 1.25 mg/kg/injection, schedule: Q01DX001 (ip), vehicle: saline 111 % of control | endpoint: median survival time, dose: 0.31 mg/kg/injection, schedule: Q01DX009 (ip), vehicle: saline 107 % of control | endpoint: median survival time, dose: 0.62 mg/kg/injection, schedule: Q01DX009 (ip), vehicle: saline 110 % of control | endpoint: median survival time, dose: 1.25 mg/kg/injection, schedule: Q01DX009 (ip), vehicle: saline 103 % of control | endpoint: median survival time, dose: 2.0 mg/kg/injection, schedule: Q01DX009 (ip), vehicle: saline 109 % of control | endpoint: median survival time, dose: 5.0 mg/kg/injection, schedule: Q01DX009 (ip), vehicle: saline 87 % of control

NOCc1ccccc1CON
inactive: endpoint: mean survival time, dose: 75.0 mg/kg/injection, schedule: Q01DX001 (ip), vehicle: saline 96 % of control | endpoint: mean survival time, dose: 150.0 mg/kg/injection, schedule: Q01DX001 (ip), vehicle: saline 100 % of control | endpoint: mean survival time, dose: 300.0 mg/kg/injection, schedule: Q01DX001 (ip), vehicle: saline 100 % of control

CCOC(=S)SSC(=S)OCC
inactive: endpoint: mean survival time, dose: 100.0 mg/kg/injection, schedule: Q01DX001 (ip), vehicle: Klucel (hydroxypropylcellulose) (HPC) 92 % of control | endpoint: mean survival time, dose: 200.0 mg/kg/injection, schedule: Q01DX001 (ip), vehicle: Klucel (hydroxypropylcellulose) (HPC) 114 % of control

COC(=O)c1csc(NC2OC(CO)C(O)C2O)n1 (stereo unspecified)
inactive: endpoint: median survival time, dose: 45.9 mg/kg/injection, schedule: Q01DX005 (ip), vehicle: saline 100 % of control | endpoint: median survival time, dose: 91.8 mg/kg/injection, schedule: Q01DX005 (ip), vehicle: saline 100 % of control | endpoint: median survival time, dose: 183.6 mg/kg/injection, schedule: Q01DX005 (ip), vehicle: saline 97 % of control

O=C(CCl)NCC(=O)NC(Cc1ccccc1)C(=O)O (stereo unspecified) (ClAc-Gly-[ξF]-OH)
inactive: [2] 98 % of control | [4] 96 % of control | [6] 96 % of control

O=[N+]([O-])c1c(Cl)cc(Cl)c(-c2c(Cl)cc(Cl)c([N+](=O)[O-])c2Cl)c1Cl
inactive: endpoint: mean survival time, dose: 12.5 mg/kg/injection, schedule: Q01DX009 (ip), vehicle: water 97 % of control | endpoint: mean survival time, dose: 25.0 mg/kg/injection, schedule: Q01DX009 (ip), vehicle: water 100 % of control | endpoint: mean survival time, dose: 50.0 mg/kg/injection, schedule: Q01DX009 (ip), vehicle: water 94 % of control | endpoint: mean survival time, dose: 100.0 mg/kg/injection, schedule: Q01DX009 (ip), vehicle: water 95 % of control | endpoint: mean survival time, dose: 200.0 mg/kg/injection, schedule: Q01DX009 (ip), vehicle: water 94 % of control

COc1cccc(N=Nc2c(N)nc(N)nc2N)c1
inactive: [14] 97 % of control

CCOC(=O)Nc1cccc(C(F)(F)F)c1
inactive: endpoint: mean survival time, dose: 100.0 mg/kg/injection, schedule: Q01DX009 (ip), vehicle: other 97 % of control | endpoint: mean survival time, dose: 200.0 mg/kg/injection, schedule: Q01DX009 (ip), vehicle: other 101 % of control | endpoint: mean survival time, dose: 400.0 mg/kg/injection, schedule: Q01DX009 (ip), vehicle: other 107 % of control

CC1(C)C2CCC1(C)C(OCCCN=C(N)CSS(=O)(=O)O)C2 (stereo unspecified)
inactive: endpoint: mean survival time, dose: 9.4 mg/kg/injection, schedule: Q04DX002 (ip), vehicle: saline with Tween-80 95 % of control | endpoint: mean survival time, dose: 18.7 mg/kg/injection, schedule: Q04DX002 (ip), vehicle: saline with Tween-80 109 % of control | endpoint: mean survival time, dose: 37.5 mg/kg/injection, schedule: Q04DX002 (ip), vehicle: saline with Tween-80 112 % of control

O=C1CCCC2c3ccccc3NC12 (stereo unspecified)
inactive: endpoint: mean survival time, dose: 100.0 mg/kg/injection, schedule: Q01DX001 (ip), vehicle: saline 98 % of control | [8] 102 % of control | [9] 101 % of control

CCCC1OC(C)CC(C)(C)O1 (stereo unspecified)
inactive: [10] 94 % of control | [11] 110 % of control | [12] 90 % of control
